Test results from patent US9422286B2, “Metal-binding bifunctional compounds as diagnostic agents for Alzheimer's disease” (Washington University, priority 2014, dated 2016).

Tests used:
[1] = test system: Aβ fibrils; conditions: non-Cu binding blocking agent; cited from earlier work
[2] = pH-spectrophotometric titration, stability constants of Cu^2+ complexes; format: physicochemical; conditions: for Calculated pCu (−log[Cu]free): [Cu^2+]tot = [chelator]tot = 50 μM
Protocol: Similar spectrophotometric titrations were performed to determine the stability constants and solution speciation of Cu^2+ with L3-L6. Stability constants were determined by titrating solutions of the compounds and equimolar amounts of Cu(ClO4)2.6H2O (50 μM or 0.5 mM) with small aliquots of 0.1 M NaOH at room temperature. At least 30 UV-vis spectra were collected in the pH 3-11 range (FIG. 2). The acidity and stability constants were calculated using the HypSpec computer program (Protonic Software, UK, Gans, P.; Sabatini, A.; Vacca, A. Ann. Chim. 1999, 45). Speciation plots of the compounds and their metal complexes were calculated using the program HySS2009 (Protonic Software, UK) (Alderighi, L. Coord. Chem. Rev. 1999, 184, 311). […] The data obtained for the Cu complex of compound L7 could not be fit satisfactorily using a reasonable model, most likely due to a multinuclear complex formation, as observed by X-ray crystallography.

[3] = target: T1, Aβ40 fibrils (Homo sapiens, UniProt P05067); assay: Direct fluorescence assay with Aβ fibrils; format: binding; conditions: [Aβ]=5 μM, λex/λem=350/450 nm; read-out: Kd, Aβ fibrils, compound fluorescence
T1 construct: purchased Keck Biotechnology Resource Laboratory, Yale University
Protocol: (§1) Aβ monomeric films were prepared by dissolving commercial Aβ42 (or Aβ40 for Aβ fibril binding studies) peptide (Keck Biotechnology Resource Laboratory, Yale University) in hexafluoroisopropanol (HFIP) (1 mM) and incubating for 1 hour at room temperature (Klein, W. L. Neurochemistry International 2002, 41, 345). The solution was then aliquoted out and evaporated overnight. The aliquots were vacuum centrifuged and the resulting monomeric films stored at −80° C. Aβ fibrils were generated by dissolving monomeric Aβ films in dimethyl sulfoxide (DMSO), diluting into the appropriate buffer, and incubating for 24 hours at 37° C. with continuous agitation (final DMSO concentration was <2%). […]
(§2) All fluorescence measurements were performed using a SpectraMax M2e plate reader (Molecular Devices). For ThT fluorescence studies, samples were diluted to a final concentration of 2.5 μM Aβ in phosphate buffered saline (PBS) solution containing 10 μM ThT and the fluorescence measured at 485 nm (λex=435 nm). For Aβ fibril binding studies, a 5 μM Aβ fibril solution was titrated with small amounts of compound and their fluorescence intensity measured (λex/λem=350/450 nm). For ThT competition assays, a 2 μM Aβ fibril solution with 1 μM ThT was titrated with small amounts of compound and the ThT fluorescence measured (λex/λem=435/485 nm). […]

[4] = UV-vis pH titration, acidity constant determination; format: physicochemical; conditions: 50 μM, 0.1 M NaCl, room temperature, methanol-water (methanol ≤20% v:v); for [HL1]/[L1]^− (pKa4): assigned to the phenol group
Protocol: UV-vis pH titrations were employed to determine the acidity constants of compounds L3-L7 and the stability constants of their Cu^2+ complexes. For acidity constants, solutions of the bifunctional compound (50 μM, 0.1 M NaCl, pH 3) were titrated with small aliquots of 0.1 M NaOH at room temperature. At least 30 UV-vis spectra were collected in the pH 3-11 range (FIG. 1).

[5] = Biodistribution and brain uptake of ^64Cu-radiolabeled compounds; format: in vivo, wild type CD-1 female mice; conditions: ^64Cu complexes, tail vein injection, 2, 60 and 240 min
Protocol: Biodistribution studies were conducted in wild type CD-1 female mice (Charles River Laboratories) of age 5-7 weeks weighing 25.4±1.4 g. The injection dose was prepared by diluting to a 90% saline solution. The uptake of compounds was evaluated in mice (L3 and L6, n=7; L4, L5, and L7, n=3) that were injected via the tail vein with 0.22-0.37 MBq (6-10 μCi) of each compound per animal in 100 μL saline. After each time points (2, 60, and 240 min), mice were anesthetized with 1-2% isoflurane and sacrificed by cervical dislocation. Brain, blood, kidney, liver and other organs of interest were harvested and amount of radioactivity in each organ was counted on a gamma counter containing a NaI crystal. The data was corrected for radioactive decay and percent injected dose per gram (% ID/g) of tissue was calculated. All samples were calibrated against a known standard. Quantitative data were processed by Prism 6 (GraphPad Software, v 6.03, La Jolla, Calif.) and expressed as Mean±SEM. Statistical analysis performed using one-way analysis of variance and Student's t test. Differences at the 95% confidence level (p<0.05) were considered statistically significant.

[6] = target: T2, ThT-bound Aβ40 fibrils (Homo sapiens, UniProt P05067); assay: ThT fluorescence competition assay; format: binding; conditions: [Aβ]=2 μM, [ThT]=1 μM
T2 construct: purchased Keck Biotechnology Resource Laboratory, Yale University
Protocol: as §1, §2

[7] = test system: Aβ deposits; conditions: cited from earlier work
[8] = Cu^2+ complex, equimolar Cu(ClO4)2, room temperature

T2 sequence (P05067 672-711 limits assumed): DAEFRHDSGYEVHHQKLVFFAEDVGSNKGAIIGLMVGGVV
T1 sequence (P05067 672-711 limits assumed): as above

Row | SMILES | [H2L1]^+/[HL1] (pKa3) [4] | [H3L1]^+2/[H2L1]^+ (pKa2) [4] | [H4L1]^3+/[H3L1]^2+ (pKa1) [4] | [HL1]/[L1]^− (pKa4) [4] | Stability constant, M^2+ + L^− = [ML]^+ [2, 8] | Brain uptake and wash out [5] | Stability constant, M^2+ + HL = [MHL]^+2 [2, 8] | other results
1 | Oc1cccc2scnc12 [BTZ, 4-hydroxybenzothiazole] |  |  |  |  |  |  |  | Affinity for Aβ fibrils [1]: nanomolar affinity
2 | O=C(O)CN(CCN(CC(=O)O)CC(=O)O)CCN(CC(=O)O)CC(=O)O [DTPA, diethylene triamine pentaacetic acid, reference compound] |  |  |  |  |  |  |  | Calculated pCu (−log[Cu]free) ([2]; pH 6.6): 9.3; Calculated pCu (−log[Cu]free) ([2]; pH 7.4): 10.1
3 | COc1cc(-c2nc3ccccc3s2)cc(CN2CCN(C)CCN(C)CC2)c1O [L3] | 8.27 | 6.35 | 3.78 | 9.34 | 31.96(60) |  |  | Kd [3]: ~575 nM; Stability constant, [ML(H2O)]^+1 = [ML(OH)] + H^+ [2, 8]: 10.14(60)
4 | COc1cc(-c2nc3ccccc3s2)cc(CN2Cc3cccc(n3)CNCc3cccc(n3)C2)c1O [L4] | 9.34 | 7.84 | 5.14 | 10.14 | 27.093 | higher initial brain uptake at 2 min, followed by rapid wash out | 2.881 | 
5 | COc1cc(-c2nc3ccccc3s2)cc(CN2Cc3cccc(n3)CN(C)Cc3cccc(n3)C2)c1O [L5] | 8.02 | 5.61 | 4.80 | 9.60 | 27.224 | higher initial brain uptake at 2 min, followed by rapid wash out | 4.008 | 
6 | COc1cc(-c2nc3ccccc3s2)cc(CN2Cc3cccc(n3)CN(CC(=O)O)Cc3cccc(n3)C2)c1O [L6] | 8.71 | 6.93 | 4.57 | 9.98 | 30.098 | higher initial brain uptake at 2 min, followed by rapid wash out | 3.012 | Ki [6]: 325 ± 40 nM
7 | COc1cc(-c2nc3ccccc3s2)cc(CN2Cc3cccc(n3)CN(Cc3cc(-c4nc5ccccc5s4)cc(OC)c3O)Cc3cccc(n3)C2)c1O [L7] | 8.22 | 7.39 | 4.35 | 10.65 |  | higher initial brain uptake at 2 min, followed by rapid wash out |  | 
8 | COc1ccc(/C=C/c2ccc(O)cc2)cc1OC [L8] |  |  |  |  |  |  |  | Ki [6]: 66 ± 20 nM
9 | [11CH3]Nc1ccc(-c2nc3ccc(O)cc3s2)cc1 [^11C-PiB] |  |  |  |  |  |  |  | Binding to soluble amyloid, NFTs, Lewy bodies ([7]; at nanomolar concentrations): does not bind; Binding to Aβ deposits ([7]; in vitro autoradiography): binds to aggregated, fibrillar Aβ deposits
